Literature values in patent US20130345262A1, “METHOD FOR PREVENTION OF STROKE” (BOEHRINGER INGELHEIM INTERNATIONAL GMBH, priority 2012, published 2013).

Test system: patients who have nonvalvular atrial fibrillation
Conditions: patients with nonvalvular atrial fibrillation

## CC(=O)CC(c1ccccc1)c1c(O)c2ccccc2oc1=O (racemic) [warfarin, 3-(α-acetonylbenzyl)4-hydroxycoumarin]
  reduction of the risk of stroke compared to placebo: about 64%
